In PubChem BioAssay (NCI):
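Compound exposure: 48 hours, 5 concentrations, 96-well plates. Here, GI50 denotes the concentration required for 50% inhibition of growth. TGI marks complete inhibition of growth.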

How the values were obtained:
Assay in all cases: NCI-60 cell line screen, 48 h
UACC-257 melanoma = tested on: UACC-257 melanoma
SF-295 CNS = tested on: SF-295 CNS
SNB-19 CNS = tested on: SNB-19 CNS
NCI-H23 lung = tested on: NCI-H23 lung
UO-31 renal = tested on: UO-31 renal
SN12C renal = tested on: SN12C renal
HCT-15 colon = tested on: HCT-15 colon
CAKI-1 renal = tested on: CAKI-1 renal
NCI-H522 lung = tested on: NCI-H522 lung
OVCAR-4 ovarian = tested on: OVCAR-4 ovarian

## OCCNCCOc1ccc(/C(=C(/Cl)c2ccccc2)c2ccccc2)cc1
UACC-257 melanoma
  TGI: 12 µM
SF-295 CNS
  TGI: 28.5 µM
SNB-19 CNS
  TGI: 28.4 µM
NCI-H23 lung
  TGI: 28.4 µM
UO-31 renal
  TGI: 22.2 µM
SN12C renal
  TGI: 19.7 µM
HCT-15 colon
  TGI: 18.6 µM
CAKI-1 renal
  TGI: 25.7 µM
NCI-H522 lung
  TGI: 28.8 µM
OVCAR-4 ovarian
  TGI: 31.5 µM

## O=c1oc2ccc(Br)cc2c(=O)n1-c1ccc(F)cc1F
UACC-257 melanoma
  GI50: 1.78 µM
  TGI: 6.67 µM
SF-295 CNS
  GI50: 1.88 µM
  TGI: 3.71 µM
SNB-19 CNS
  GI50: 2.3 µM
  TGI: > 100 µM
NCI-H23 lung
  GI50: 2.55 µM
  TGI: 10.1 µM
UO-31 renal
  GI50: 1.28 µM
  TGI: 5.93 µM
SN12C renal
  GI50: 2 µM
  TGI: 8.61 µM
HCT-15 colon
  GI50: 3.04 µM
  TGI: 12.8 µM
CAKI-1 renal
  GI50: 1.72 µM
  TGI: 6.1 µM
NCI-H522 lung
  GI50: 2.6 µM
  TGI: 14.9 µM
OVCAR-4 ovarian
  GI50: 1.65 µM
  TGI: 8.45 µM

## Cc1ccc(Nc2nnc(-c3ccc4c(c3)OCO4)o2)c(C)c1
UACC-257 melanoma
  TGI: > 100 µM
SF-295 CNS
  TGI: > 100 µM
SNB-19 CNS
  TGI: > 100 µM
NCI-H23 lung
  TGI: > 100 µM
UO-31 renal
  TGI: > 100 µM
SN12C renal
  TGI: > 100 µM
HCT-15 colon
  TGI: > 100 µM
CAKI-1 renal
  TGI: > 100 µM
NCI-H522 lung
  TGI: > 100 µM
OVCAR-4 ovarian
  TGI: > 100 µM

## Cc1cc(C)n(-c2nnc3n2N=C(c2ccc(-c4ccccc4)cc2)CS3)n1
UACC-257 melanoma
  GI50: 4.99 µM
  TGI: > 100 µM
SF-295 CNS
  GI50: 2.64 µM
  TGI: 7.63 µM
SNB-19 CNS
  GI50: 3.98 µM
  TGI: > 100 µM
NCI-H23 lung
  GI50: 4.79 µM
  TGI: > 100 µM
UO-31 renal
  GI50: 3.38 µM
  TGI: > 100 µM
SN12C renal
  GI50: 3.92 µM
  TGI: > 100 µM
HCT-15 colon
  GI50: 3.51 µM
  TGI: > 100 µM
CAKI-1 renal
  GI50: 3.05 µM
  TGI: > 100 µM
NCI-H522 lung
  GI50: 2.95 µM
  TGI: 12.9 µM
OVCAR-4 ovarian
  GI50: 4.12 µM
  TGI: > 100 µM

## COc1ccc(Cc2cnc(NC(=O)c3ccc4c(c3)OCCO4)s2)cc1
UACC-257 melanoma
  GI50: 4.83 µM
  TGI: > 100 µM
SF-295 CNS
  GI50: 0.0242 µM
  TGI: 20.8 µM
SNB-19 CNS
  GI50: 0.0523 µM
  TGI: 43.2 µM
NCI-H23 lung
  GI50: 0.0537 µM
  TGI: > 100 µM
UO-31 renal
  GI50: 1.2 µM
  TGI: > 100 µM
SN12C renal
  GI50: 0.0556 µM
  TGI: > 100 µM
HCT-15 colon
  GI50: 0.0167 µM
  TGI: > 100 µM
CAKI-1 renal
  GI50: < 0.0123 µM
  TGI: 15.6 µM
NCI-H522 lung
  GI50: < 0.0125 µM
OVCAR-4 ovarian
  GI50: 0.0836 µM
  TGI: > 100 µM

## COc1cc(C(=O)N2CCc3c([nH]c4c([N+](=O)[O-])c(OC)ccc34)C2C)cc(OC)c1OC (centres undefined)
UACC-257 melanoma
  TGI: > 100 µM
SF-295 CNS
  TGI: > 100 µM
SNB-19 CNS
  TGI: > 100 µM
NCI-H23 lung
  TGI: > 100 µM
UO-31 renal
  TGI: > 100 µM
SN12C renal
  TGI: > 100 µM
HCT-15 colon
  TGI: > 100 µM
CAKI-1 renal
  TGI: > 100 µM
NCI-H522 lung
  TGI: > 100 µM
OVCAR-4 ovarian
  TGI: > 100 µM

## CCOC(CN(C)C(=S)Nc1cccc2ccccc12)OCC
UACC-257 melanoma
  TGI: > 10 µM
SF-295 CNS
  TGI: > 10 µM
SNB-19 CNS
  TGI: > 10 µM
NCI-H23 lung
  TGI: > 10 µM
UO-31 renal
  TGI: > 10 µM
SN12C renal
  TGI: > 10 µM
HCT-15 colon
  TGI: > 10 µM
CAKI-1 renal
  TGI: > 10 µM
NCI-H522 lung
  TGI: > 10 µM
OVCAR-4 ovarian
  TGI: > 10 µM

## CC1=C(c2cc(C(=O)Nc3ccc(Cl)cc3)nc(=S)[nH]2)Sc2ccccc2N1
UACC-257 melanoma
  TGI: > 100 µM
SF-295 CNS
  TGI: > 100 µM
SNB-19 CNS
  TGI: > 100 µM
NCI-H23 lung
  TGI: > 100 µM
UO-31 renal
  TGI: > 100 µM
SN12C renal
  TGI: > 100 µM
HCT-15 colon
  TGI: > 100 µM
CAKI-1 renal
  TGI: > 100 µM
NCI-H522 lung
  TGI: > 100 µM
OVCAR-4 ovarian
  TGI: > 100 µM

## CC[C@@]1(O)C(=O)OCc2c1cc1n(c2=O)Cc2c-1nc1cc(F)c(C)c3c1c2[C@@H](N)CC3
UACC-257 melanoma
  GI50: < 0.0151 µM
  TGI: 0.981 µM
SF-295 CNS
  GI50: < 0.01 µM
  TGI: 0.0915 µM
SNB-19 CNS
  GI50: < 0.01 µM
  TGI: > 100 µM
NCI-H23 lung
  GI50: < 0.01 µM
  TGI: 0.0638 µM
UO-31 renal
  GI50: < 0.01 µM
  TGI: 0.108 µM
SN12C renal
  GI50: < 0.01 µM
  TGI: > 100 µM
HCT-15 colon
  GI50: 0.0215 µM
  TGI: > 100 µM
CAKI-1 renal
  GI50: < 0.01 µM
  TGI: 0.101 µM
NCI-H522 lung
  GI50: < 0.01 µM
  TGI: 0.531 µM
OVCAR-4 ovarian
  GI50: 0.0656 µM
  TGI: > 100 µM

## COC(=O)c1cc(/C=C/c2ccc(S(N)(=O)=O)cc2)ccc1O
UACC-257 melanoma
  GI50: 59.6 µM
  TGI: > 100 µM
SF-295 CNS
  GI50: 26.5 µM
  TGI: > 100 µM
SNB-19 CNS
  GI50: 38.2 µM
  TGI: > 100 µM
NCI-H23 lung
  GI50: > 100 µM
  TGI: > 100 µM
UO-31 renal
  GI50: 29.1 µM
  TGI: > 100 µM
SN12C renal
  GI50: 29.3 µM
  TGI: 89.9 µM
HCT-15 colon
  GI50: 27 µM
  TGI: > 100 µM
CAKI-1 renal
  GI50: 28.6 µM
  TGI: > 100 µM
NCI-H522 lung
  GI50: 20.2 µM
  TGI: 69.6 µM
OVCAR-4 ovarian
  GI50: 72.9 µM
  TGI: > 100 µM

## O/C(=C\c1nc2ccccc2nc1NC12CC3CC(CC(C3)C1)C2)c1ccc(Br)cc1
UACC-257 melanoma
  TGI: > 10 µM
SF-295 CNS
  TGI: > 10 µM
SNB-19 CNS
  TGI: > 10 µM
NCI-H23 lung
  TGI: > 10 µM
UO-31 renal
  TGI: > 10 µM
SN12C renal
  TGI: > 10 µM
HCT-15 colon
  TGI: > 10 µM
CAKI-1 renal
  TGI: > 10 µM
NCI-H522 lung
  TGI: > 10 µM
OVCAR-4 ovarian
  TGI: > 10 µM
